Experimental data from patent publication US10787452B2 (Vertex Pharmaceuticals Incorporated, priority 2012, dated 2020).

Tested on: HCT116 colorectal cancer cells
Test: Cisplatin sensitization assay (96 h cell viability MTS);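 also: compound concentration needed to lower the Cisplatin-alone IC50 by a set fold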
Type: cell-based
Settings: 96 h MTS, compound plus Cisplatin
Outline: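 Full-matrix combination: compound × cisplatin, 2-fold dilutions from 10 μM top final, co-added; 96 h, 37° C, 5% CO2; MTS read-out after 1 h.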

Row | Compound | Cisplatin Sensitization Assay
1 | CC(C)N1CCN(c2ccncc2NC(=O)c2c(N)nn3cc(F)cnc23)CC1 [I-N-4, 2-amino-6-fluoro-N-(4-(4-isopropylpiperazin-1-yl)pyridin-3-yl)pyrazolo[1,5-a]pyrimidine-3-carboxamide] | +++ (Compounds with a Cisplatin sensitization value of <0.02 μM are marked with “+++.”)
2 | CNC1CCN(c2ccncc2NC(=O)c2c(N)nn3cc(Cl)cnc23)CC1 [I-N-87, 2-amino-6-chloro-N-(4-(4-(methylamino)piperidin-1-yl)pyridin-3-yl)pyrazolo[1,5-a]pyrimidine-3-carboxamide] | ++ (Compounds with a Cisplatin sensitization value >0.02 μM but <0.2 μM are marked with “++.”)
3 | Nc1nn2cc(Cl)cnc2c1C(=O)Nc1cnccc1N1CCC(N2CCn3ccnc3C2)CC1 [I-N-102, 2-amino-6-chloro-N-(4-(4-(5,6-dihydroimidazo[1,2-a]pyrazin-7(8H)-yl)piperidin-1-yl)pyridin-3-yl)pyrazolo[1,5-a]pyrimidine-3-carboxamide] | ++ (Compounds with a Cisplatin sensitization value >0.02 μM but <0.2 μM are marked with “++.”)
4 | Nc1nn2cc(F)cnc2c1C(=O)Nc1cncc(F)c1N1CCC2(CC1)COC2 [I-N-239, 2-amino-6-fluoro-N-(5-fluoro-4-(2-oxa-7-azaspiro[3.5]nonan-7-yl)pyridin-3-yl)pyrazolo[1,5-a]pyrimidine-3-carboxamide] | +++ (Compounds with a Cisplatin sensitization value of <0.02 μM are marked with “+++.”)
5 | N#CCc1cnc2c(C(=O)Nc3cnccc3OC3COC3)c(N)nn2c1 [I-O-38, 2-amino-6-(cyanomethyl)-N-(4-(oxetan-3-yloxy)pyridin-3-yl)pyrazolo[1,5-a]pyrimidine-3-carboxamide] | +++ (Compounds with a Cisplatin sensitization value of <0.02 μM are marked with “+++.”)
6 | CN(C)C(=O)C1CCN(c2c(F)cncc2NC(=O)c2c(N)nn3cc(F)cnc23)CC1 [I-G-29, 2-amino-N-(4-(4-(dimethylcarbamoyl)piperidin-1-yl)-5-fluoropyridin-3-yl)-6-fluoropyrazolo[1,5-a]pyrimidine-3-carboxamide] | +++ (Compounds with a Cisplatin sensitization value of <0.02 μM are marked with “+++.”)
7 | CC1CN(c2ccncc2NC(=O)c2c(N)nn3cc(Cl)cnc23)CCN1C (centres unmarked) [I-N-54, 2-amino-6-chloro-N-(4-(3,4-dimethylpiperazin-1-yl)pyridin-3-yl)pyrazolo[1,5-a]pyrimidine-3-carboxamide] | +++ (Compounds with a Cisplatin sensitization value of <0.02 μM are marked with “+++.”)
8 | Nc1nn2cc(Cl)cnc2c1C(=O)Nc1cnccc1OCCN1CCOCC1 [I-O-60, 2-amino-6-chloro-N-(4-(2-morpholinoethoxy)pyridin-3-yl)pyrazolo[1,5-a]pyrimidine-3-carboxamide] | ++ (Compounds with a Cisplatin sensitization value >0.02 μM but <0.2 μM are marked with “++.”)
9 | Cc1nnccc1-c1ccncc1NC(=O)c1c(N)nn2cc(F)cnc12 [I-C-31, 2-amino-6-fluoro-N-(4-(3-methylpyridazin-4-yl)pyridin-3-yl)pyrazolo[1,5-a]pyrimidine-3-carboxamide] | +++ (Compounds with a Cisplatin sensitization value of <0.02 μM are marked with “+++.”)
10 | CN1CCN(c2c(Cl)cncc2NC(=O)c2c(N)nn3cc(F)cnc23)CC1 [I-N-85, 2-amino-N-(5-chloro-4-(4-methylpiperazin-1-yl)pyridin-3-yl)-6-fluoropyrazolo[1,5-a]pyrimidine-3-carboxamide] | ++ (Compounds with a Cisplatin sensitization value >0.02 μM but <0.2 μM are marked with “++.”)
11 | Nc1nn2cc(F)cnc2c1C(=O)Nc1cncc(F)c1N1CCC(S(=O)(=O)N2CCN3CCC2CC3)CC1 [I-N-273, N-(4-(4-(1,4-diazabicyclo[3.2.2]nonan-4-ylsulfonyl)piperidin-1-yl)-5-fluoropyridin-3-yl)-2-amino-6-fluoropyrazolo[1,5-a]pyrimidine-3-carboxamide] | +++ (Compounds with a Cisplatin sensitization value of <0.02 μM are marked with “+++.”)
